The nature of data set [1]: Fluorescence quantum yield determination against sulforhodamine 101 reference. The class given is physicochemical. The settings on record: excited at 560 nm, triplicate. As for the experimental part: The fluorescence quantum yield of Compound 41 is determined using sulforhodamine 101 (in ethyl alcohol) as the reference standard (φF=0.90). The concentrations of sulforhodamine 101 (the reference) and Compound 41 are adjusted to obtain an absorbance of 0.25 (in 1 cm cell) at 560 nm. The sample and reference are each excited at 560 nm and their fluorescence spectra obtained. The fluorescence quantum yield of the sample (φF^X) in the indicated solvent was calculated from the following formula, considering that the peak area (AR) of the emission spectrum of the reference and that of the tested dye (AX) can be readily determined: φF^X=AxφF^RAR where φF^R and φF^X are the fluorescence quantum yields of the reference and the testing dye. The measurements are done in triplicate and the estimated errors are no more than 1%. The quantum yields of Compound 41 are determined to be 0.72 (in methyl alcohol) and 0.68 (in water) respectively.

Data set [2] concerns Mouse monocyte-macrophage, Abelson Leukemia Virus Transformed (RAW264.7) cells. Kind of data set: Discrimination of live and dead cells by flow cytometry. The class given is cell-based. To be noted: heat-killed fraction (50° C., 20 minutes), 30 minutes on ice. As to the method: Selected dyes of the invention are highly polar, and therefore relatively impermeable to the membranes of live cells. These dyes can therefore be used to discriminate cells that have intact versus compromised cell membranes in a single-color assay as follows: Mouse monocyte-macrophage, Abelson Leukemia Virus Transformed (RAW264.7) cells are trypsinized and washed with phosphate buffered saline (PBS), pH 7.2. Approximately 8-10 million cells suspended in 180 μL of PBS, pH 7.2 are placed in a glass test tube and heated in a water bath at 50° C. for 20 minutes to kill a fraction of the cells. […] The mixture is incubated on ice for 30 minutes and washed twice with PBS, followed by addition of 200 μL of PBS, pH 7.2. An identical aliquot of cells is treated with 2 μL of a 150 μM solution of propidium iodide in water (as a control for dead cells).
(In general: A flow cytometer gives signals particle by particle.)

For data set [3], the system named is Neurons from zebrafish embryos. The experiment in a line: Neuronal tracing using a hydrazide-labeled fluorophore (microinjection). The class given is cell-based. The source says:
Neurons from zebrafish embryos are microinjected with Compound 44, using standard methods as described by Blankenfeld et al. (J. NEUROSCI. METH. 36, 309 (1991)). […] The staining is fixable in the cells using formaldehyde and standard fixing methods.

The nature of data set [4]: Determination of the Ca2+ binding affinity (fluorescence titration, method of Tsien et al.). As to the method: The fluorescence response and dissociation constant of Compound 58 is determined using the method described by Tsien et al. METH. ENZYM. 172, 230 (1989). Compound 58 (1 mg) is dissolved in deionized water and 5 µL of this solution is diluted into 3 mL of each of two buffers, which are cross diluted to arrive at a series of Ca^2+ concentrations between zero and 35 µM. Emission spectra of the dye solutions are scanned between dilutions to generate a family of curves. Each of these curves has maximal fluorescence emission at approximately 640 nm with an increase in fluorescence emission intensity with increasing Ca^2+ concentration. This intensity change is plotted against the concentration of free Ca^2+ to give a value for the dissociation constant of the indicator. The calculated dissociation constant at 20° C. is 57.5 μM.

The conditions of data set [5]: in ethyl alcohol; cited from earlier work.
Data set [6] is described as follows: Fluorescence of selected protein conjugates. The settings on record: protein conjugates prepared with Compound 42 as in Example 47. It counts as physicochemical. As to the method: A series of dye conjugates of goat anti-mouse IgG, streptavidin and other proteins, including R-phycoerythrin (R-PE) are prepared by standard means (Haugland et al., METH. MOL. BIOL. 45, 205 (1995); Haugland, METH. MOL. BIOL. 45, 223 (1995); Haugland, METH. MOL. BIOL. 45, 235 (1995)) using Compound 42 and a succinimidyl ester derivative of CY-5 dye.
A solution of the desired protein is prepared at 10 mg/mL in 0.1 M sodium bicarbonate. The labeling reagents are dissolved in DMF at 10 mg/mL. Predetermined amounts of the labeling reagents are added to the protein solutions with stirring. A molar ratio of 10 equivalents of dye to 1 equivalent of protein is typical, though the optimal amount varies with the particular labeling reagent, the protein being labeled and the protein's concentration, and is determined empirically. The reaction mixture is incubated at room temperature for one hour, or on ice for several hours. The dye-protein conjugate is typically separated from free unreacted reagent by size-exclusion chromatography on BIO-RAD P-30 resin equilibrated with PBS. The initial, protein-containing colored band is collected and the degree of substitution is determined from the absorbance at the absorbance maximum of each fluorophore, using the extinction coefficient of the free fluorophore.

As for `CN1c2cc3c(cc2-c2sc(S(=O)(=O)O)cc2C1(C)C)C(c1c(F)c(SCC(=O)O)cc(F)c1S(=O)(=O)[O-])=c1cc2c(cc1O3)=[N+](C)C(C)(C)c1cc(S(=O)(=O)O)sc1-2` [Compound 41], the fluorescence quantum yield in data set [1] (in methyl alcohol) is 0.72; in data set [1] (in water) it was 0.68.
For the compound `CN1c2cc3c(cc2-c2sc(S(=O)(=O)O)cc2C1(C)C)C(c1c(F)c(SCC(=O)ON2C(=O)CCC2=O)cc(F)c1S(=O)(=O)[O-])=c1cc2c(cc1O3)=[N+](C)C(C)(C)c1cc(S(=O)(=O)O)sc1-2` [Compound 42], the “dead cell populations stained, compared with propidium iodide” value in data set [2] is reported as “very similar”.
With `CN1c2cc3c(cc2-c2sc(S(=O)(=O)O)cc2C1(C)C)C(c1c(F)c(SCC(=O)NN)cc(F)c1S(=O)(=O)[O-])=c1cc2c(cc1O3)=[N+](C)C(C)(C)c1cc(S(=O)(=O)O)sc1-2` [Compound 44], the “filling and fluorescence of microinjected neurons” value in data set [3] is “neurons rapidly fill with the dye throughout their volume and their red fluorescence is readily observable”.
Regarding `Cc1ccc(N(CC(=O)O)CC(=O)O)c(OCCOc2cc(C3=c4cc5c(cc4Oc4cc6c(cc43)-c3sc4ccccc4c3C(C)(C)N6C)=[N+](C)C(C)(C)c3c-5sc4ccccc34)ccc2N(CC(=O)[O-])CC(=O)O)c1` [Compound 58], the maximal fluorescence emission entry in data set [4] (Ca2+ buffer series, intensity increases with increasing Ca2+) is on record as “approximately 640 nm”. In data set [4] (at 20° C., free Ca2+ between zero and 35 µM, read-out: dissociation constant (Ca2+)), the Kd came to 57.5 µM.
`O=S(=O)([O-])c1cc(S(=O)(=O)O)ccc1C1=c2cc3c4c(c2Oc2c1cc1c5c2CCCN5CCC1)CCC[N+]=4CCC3` [sulforhodamine 101]: the “fluorescence quantum yield of reference standard (φF)” value in data set [5] is listed as 0.90.
As for Wheat Germ Agglutinin, the “Quantum Yield” value in data set [6] worked out at 0.56.

(Values after patent US7816519B2, “Derivatives of 1,2-dihydro-7-hydroxyquinolines containing fused rings” (Life Technologies Corporation, priority 2000, dated 2010).)
